Assay results taken from ChEMBL document CHEMBL1136097, “Synthesis of the first examples of A-C8/C-C2 amide-Linked pyrrolo[2,1-c][1,4]benzodiazepine dimers” (Bioorg Med Chem Lett, 2003).

Assays:
[1] = In vitro inhibitory activity against human tumor cell line CHI; format: functional
SK-OV-3 = test: In vitro inhibitory activity against human tumor cell line SKOV-3; format: functional, cell-based
[2] = In vitro inhibitory activity against human tumor cell line CHIcis; format: functional
A2780 = test: In vitro inhibitory activity against human tumor cell line A2780; format: functional, cell-based
A2780cisR = test: In vitro inhibitory activity against human tumor cell line A2780cis; format: functional, cell-based

Measured: IC50

COc1cc2c(cc1OC)C(=O)N1C=C(CC(=O)Nc3ccc4c(c3)N=C[C@@H]3CCCN3C4=O)C[C@H]1C=N2
> 25 µM: all assays above
